Data taken from patent US20240239790A1, “7-Morpholino-1,6-Naphthyridin-5-yl Derivatives and Pharmaceutical Compositions Thereof Useful as DNA-PK Inhibitor” (adMare Therapeutics Society, priority 2021, published 2024).
Like-named read-outs stand apart in the source and are kept apart here.

What was measured:
[1] = tested on: pDNA-PK induction in FaDU tumour spheroids; assay: Multicellular tumour spheroid + radiation, pDNA-PK (ser2056) inhibition, immunohistochemical endpoint, FaDU; type: cell-based; conditions: Homo sapiens, 20 Gy
Protocol: Multicellular tumour spheroids determination of compound inhibition of pDNA-PK induction following radiation. Tumour spheroids were grown to approximately 0.5 mm in diameter and irradiated with 20 Gy in combination with inhibitor test compounds to determine their potency. Inhibitor concentration for 50% reduction in pDNA-PK induction (IC50) was determined via immunohistochemical staining in spheroid cryosections taken 2 hours following radiation. For cell survival endpoint 8 Gy radiation was used and 3 hours following radiation spheroids were dissociated, counted and plated for colony forming endpoint.
Spheroid+radiation pDNA-PK. Radiation: 20 Gy. Drug: serial dilution 5 or 10 μM down to 3.5 nM (11 wells). Spheroids: 3-6 spheroids per well (300-500 μm diameter). 20% 02 and 5% CO2. 96 well plate format. Endpoint: fluorescent immunostain pDNA-PK ser2056 and image on microscope. Analysis: determine EC50 concentrations that decreases pDNA-PK induction by 50% after irradiation.
Multicellular tumour spheroids were used to determine potency of test compounds in a 3D tissue environment using inhibition of pDNA-PK induction following radiation or cell survival as the endpoint. For the pDNA-PK endpoint HCT116 or FaDU tumour spheroids were grown to approximately 0.5 mm in diameter and irradiated with 20 Gy in combination with inhibitor test compounds to determine their potency. Experiments were carried out in 96 well plates containing 0.7 mls of MEM media containing 10% FBS and 10 mM glucose under 20% O2 & 5% CO2 at 37° C. Following dilution of compounds 1:1000 from DMSO stocks, compounds were serially diluted from 10 μM down to 3.5 nM and 5-10 spheroids added. 96 well plates were constantly stirred to avoid spheroids settling during the course of the experiment. The inhibitor concentration for 50% reduction in pDNA-PK induction (EC50) was determined via immunohistochemical staining in spheroid cryosections taken 2 hours following radiation using anti-pDNA-PK (ser 2056) and fixed immediately in formalin following sectioning. For cell survival endpoint 8 Gy radiation was used and, 3 hours following radiation, spheroids were dissociated, counted and plated for colony forming endpoint. Data presented in the table compound potency as EC50 [μM].

[2] = tested on: pDNA-PK induction in HCT116 tumour spheroids; assay: Multicellular tumour spheroid + radiation, pDNA-PK (ser2056) inhibition, immunohistochemical endpoint, HCT116; type: cell-based; conditions: Homo sapiens, 20 Gy, 20% O2
Method in brief: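 HCT116 spheroids (~0.5 mm) in MEM/10% FBS, 20% O2, 37° C., pre-incubated 1 h with compound (10 or 5 μM down to 3.5 nM), irradiated 20 Gy, then 2 h further with compound. Cryosections immunostained for pDNA-PK ser2056; EC50 is concentration halving radiation-induced pDNA-PK.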

[3] = target: T1, DNA-PK (Homo sapiens, UniProt P78527); assay: DNA-PK Assay for Biochemical Enzymatic Inhibition (ADP Glo Kinase assay); conditions: DNA-PK enzyme
T1 construct: purchased Invitrogen PR9107A
Method in brief: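 Human DNA-PK (25 ng) preincubated 15 min with compounds (ten three-fold dilutions) in HEPES pH 7.5, MgCl2, KCl, calf thymus DNA buffer, then substrate 434.4 μM and ATP 64.4 μM (final) for 60 min at room temperature. ADP-Glo luminescence; percent inhibition fitted by four-parameter regression for IC50.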

[4] = target: T2, DNA-PK phosphorylation at Serine 2056 (Homo sapiens, UniProt P78527); assay: Cellular Assay for Inhibition of DNA-PK Phosphorylation at Serine 2056 in FaDu cells (sandwich ELISA, neocarzinostatin); type: cell-based; conditions: pSer2056 DNA-PK
T2 construct: FaDu cells were purchased from ATCC; host or cells: FaDu
Method in brief: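 FaDu cells pre-treated with compound (0.3% DMSO) for 1 h, then neocarzinostatin 1 μg/mL final added for 2 h to induce DSBs. Protein-normalised lysates read by sandwich ELISA for total and pSer2056 DNA-PK; % inhibition normalised between DMSO and NCS controls, IC50 from variable-slope log(inhibitor) fit.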

[5] = tested on: FaDu cell line; assay: Prodrug Activation in Hypoxic Stirred Tumour Cell Suspensions; conditions: 10 μM, 4 hours
[6] = Microsomal Stability Assay, human liver microsomes; type: in vitro ADME; conditions: human liver microsomes, Example 11; for microsomal CLint at 0.1 uM: both sexes, pH 7.4
Protocol: (§1) Samples were then mixed and centrifuged. Supernatants were used for HPLC-MS/MS analysis. […] Peak areas corresponding to the test compound were recorded.

[7] = tested on: pH2AX induction in HCT116 ATM-/- multicellular tumour spheroids; assay: Prodrug Radiation Sensitization in Multicellular Tumour Spheroids, inhibition of pH2AX induction following radiation; type: cell-based; conditions: Homo sapiens, HCT-116, 20 Gy
Method in brief: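 HCT116 and FaDu spheroids (~0.5 mm diameter), ATM-deficient lines included, in MEM/10% FBS/10 mM glucose at 37 °C under 20% vs 5% oxygen with stirring. Prodrugs 10 μM down to 3.5 nM, 20 Gy irradiation. pDNA-PK (ser 2056) or pH2AX (ser 139) scored in formalin-fixed cryosections 1 or 2 h post-radiation.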

[8] = Microsomal Stability Assay, mouse liver microsomes; type: in vitro ADME; conditions: for microsomal CLint at 0.1 uM: male, CD-1, pH 7.4
Protocol: as §1

[9] = tested on: FaDu tumour xenograft; assay: Tumour Growth Delay, FaDu tumour xenograft-bearing animals, compound ± radiation (TGD-ER); type: in vivo; conditions: PO
Protocol: FaDu tumour xenograft-bearing animals were monitored for tumour growth and once average tumour size reached approximately 100-250 mm3, animals were assigned to treatment cohorts using stratified randomization. […]
For BID dosing regimens, at 8 h following the first injection, animals were again administered with test compound at the same dose as their previous administration. Animals were weighed and had tumours measured using calipers three times weekly until the endpoint of maximum tumour volume, 1000 mm3, was reached and animals were euthanized. Tumour volumes were calculated according to the equation L×W^2/2 with the length (mm) being the longer axis of the tumour; in the case that no tumour was palpable, tumour volumes were recorded as 0 mm^3.
Data were calculated as tumour growth normalized to day 0 measurements, with time to tumour doubling determined. Average time to tumour doubling for each group was used to determine a Tumour Growth Delay Enhancement Ratio (TGD-ER): the time to doubling for treatment groups were divided by the time to doubling for irradiation-alone groups to determine group-specific TGD-ER values, and these were assigned scores based on defined response ranges: values>2.5=A, 1-2.5=B, <1=C.

[10] = 2 hours following radiation, 20% O2, Example 9 Study 2, read-out: Spheroid Cell line: FaDU Immunohistochemical endpoint pDNA-PK inhibition EC50
[11] = 2 h, spheroids, 20% O2, Example 8, read-out: Cell line: FaDU Immunohistochemical endpoint pDNA-PK inhibition EC50
[12] = HCT-116, 2 h, spheroids, Example 8, read-out: Cell line: HCT116 Immunohistochemical endpoint pDNA-PK inhibition EC50
[13] = HCT-116, 2 hours following radiation, Example 9 Study 2, read-out: Spheroid Cell line: HCT116 Immunohistochemical endpoint pDNA-PK inhibition EC50
[14] = HCT-116, Spheroid, Cell Line: HCT115 (so in the source), 2 hours following radiation, Example 7, read-out: EC50, Immunohistochemical endpoint, pDNA-PK inhibition
[15] = neocarzinostatin 1 μg/mL, Table 1
[16] = 5% O2, inner layers, read-out: Prodrug 5% O2 Inner layers EC50
[17] = 5% O2, outer layers, read-out: Prodrug 5% O2 Outer layers EC50
[18] = 20% O2, outer layers, read-out: Prodrug 20% O2 Outer layers EC50
[19] = mouse liver microsomes, Example 11
[20] = mouse liver microsomes 0.1 mg/mL, 0.1 uM compound

| Compound | EC50 [1, 10] | EC50 [1, 11] | EC50 [2, 12] | EC50 [2, 13] | EC50 [2, 14] | IC50 ([3]; Table 1) | IC50 [4, 15] | further results |
| --- | --- | --- | --- | --- | --- | --- | --- | --- |
| CN(C)C(=O)COc1cnc(N[C@H]2CC[C@@H](Oc3nc(N4CCOCC4)cc4ncc(Br)cc34)CC2)nc1 [Compound 178, 2-((2-(((1s,4s)-4-((3-bromo-7-morpholino-1,6-naphthyridin-5-yl)oxy)cyclohexyl)amino)pyrimidin-5-yl)oxy)-N,N-dimethylacetamide] | 1000 to 10000 nM | 1000 to 10000 nM | 500 to 1000 nM | 500 to 1000 nM | 500 to 1000 nM | < 0.5 nM | 100 to 1000 nM |  |
| Cn1c(CN(c2cnc3cc(N4CCOCC4)nc(OC4CCC(NC(=O)c5ncccn5)CC4)c3c2)S(C)(=O)=O)cnc1[N+](=O)[O-] (centres unmarked) [LFA016, N-[4-[[3-[(3-Methyl-2-nitro-imidazol-4-yl)methyl-methylsulfonyl-amino]-7-morpholino-1,6-naphthyridin-5-yl]oxy]cyclohexyl]pyrimidine-2-carboxamide] |  |  |  |  |  |  |  | Fraction of prodrug converted to active form, Hypoxic 0.2% O2 [5]: C (C is 0.02 to 0.05); Fraction of prodrug converted to active form, Oxic 5% O2 [5]: D (D is 0 to 0.02); microsomal CLint at 0.1 uM [6]: < 116 µL/min/mg; Microsomal Stability Human % rem. 60 min [6]: F (% remaining = 25-50%); EC50 [7, 16]: 1000 to 10000 nM; EC50 [7, 17]: 1000 to 10000 nM; EC50 [7, 18]: 10000 to 100000 nM; IC50 ([3]; Table 2): 10 to 150 nM; IC50 ([4]; Table 2): 10000 to 30000 nM; microsomal CLint at 0.1 uM [8, 19]: < 116 µL/min/mg; Microsomal Stability Mouse % rem. 60 min [8, 19]: G (% remaining = 50-75%) |
| O=C(Nc1ccncc1)[C@H]1CC[C@@H](Oc2nc(N3CCOCC3)cc3ncccc23)CC1 [Compound 154e, (1S,4S)-4-((7-morpholino-1,6-naphthyridin-5-yl)oxy)-N-(pyridin-4-yl)cyclohexane-1-carboxamide] | 500 to 1000 nM | 500 to 1000 nM | 1000 to 10000 nM | 1000 to 10000 nM | 1000 to 10000 nM | 1 to 10 nM | 100 to 1000 nM | microsomal CLint at 0.1 uM [8, 20]: > 116 µL/min/mg; Microsomal Stability Mouse % rem. 60 min ([8]; mouse liver microsomes): E (% remaining = 0-25%) |
| O=C(O)c1cnc2cc(N3CCOCC3)nc(O[C@H]3CC[C@@H](Nc4ncccn4)CC3)c2c1 [Compound 183, 7-morpholino-5-(((1s,4s)-4-(pyrimidin-2-ylamino)cyclohexyl)oxy)-1,6-naphthyridine-3-carboxylic acid] | 1000 to 10000 nM | 1000 to 10000 nM | 1000 to 10000 nM | 1000 to 10000 nM | 1000 to 10000 nM | < 0.5 nM | 1000 to 10000 nM | microsomal CLint at 0.1 uM [8, 20]: < 116 µL/min/mg; Microsomal Stability Mouse % rem. 60 min ([8]; mouse liver microsomes): H (% remaining = 75-100%) |
| COc1ccc(NC(=O)N[C@H]2CC[C@@H](Oc3nc(N4CCOCC4)cc4ncccc34)CC2)cc1 [Compound 152, 1-(4-Methoxyphenyl)-3-((1s,4s)-4-((7-morpholino-1,6-naphthyridin-5-yl)oxy)cyclohexyl)urea] | 500 to 1000 nM | 500 to 1000 nM | 1000 to 10000 nM | 1000 to 10000 nM | 1000 to 10000 nM | 0.5 to 1 nM | 100 to 1000 nM |  |
| CN1CCN(CCOc2cnc(N[C@H]3CC[C@@H](Oc4nc(N5CCOCC5)cc5ncc(NS(C)(=O)=O)cc45)CC3)nc2)CC1 [LFA031, N-[5-[4-[[5-[2-(4-Methylpiperazin-1-yl)ethoxy]pyrimidin-2-yl]amino]cyclohexoxy]-7-morpholino-1,6-naphthyridin-3-yl]methanesulfonamide] |  |  |  |  |  |  |  | TGD-ER Range Score ([9]; 30 mpk BID + 10 Gy): B (1-2.5=B) |
| CN(C)C(=O)COc1cnc(N[C@H]2CC[C@@H](Oc3nc(N4CCOCC4)cc4ncc(OCc5cnc([N+](=O)[O-])n5C)cc34)CC2)nc1 [LFA114, N,N-Dimethyl-2-[2-[[4-[[3-[(3-methyl-2-nitro-imidazol-4-yl)methoxy]-7-morpholino-1,6-naphthyridin-5-yl]oxy]cyclohexyl]amino]pyrimidin-5-yl]oxy-acetamide] |  |  |  |  |  |  |  | Fraction of prodrug converted to active form, Hypoxic 0.2% O2 [5]: A (A is 0.15 to 1); Fraction of prodrug converted to active form, Oxic 5% O2 [5]: B (B is 0.05 to 0.15); microsomal CLint at 0.1 uM [6]: < 116 µL/min/mg; Microsomal Stability Human % rem. 60 min [6]: E (% remaining = 0-25%); EC50 [7, 16]: 10 to 500 nM; EC50 [7, 17]: 500 to 1000 nM; EC50 [7, 18]: 1000 to 10000 nM; IC50 ([3]; Table 2): 10 to 150 nM; IC50 ([4]; Table 2): 10000 to 30000 nM; microsomal CLint at 0.1 uM [8, 19]: > 116 µL/min/mg; Microsomal Stability Mouse % rem. 60 min [8, 19]: E (% remaining = 0-25%) |
| CC(c1cnc([N+](=O)[O-])n1C)N(c1cnc2cc(N3CCOCC3)nc(O[C@H]3CC[C@@H](Nc4ncc(OCCN5CCN(C)CC5)cn4)CC3)c2c1)S(C)(=O)=O (some centres unmarked) [LFA033, N-[1-(3-Methyl-2-nitro-imidazol-4-yl)ethyl]-N-[5-[4-[[5-[2-(4-methylpiperazin-1-yl)ethoxy]pyrimidin-2-yl]amino]cyclohexoxy]-7-morpholino-1,6-naphthyridin-3-yl]methanesulfonamide] |  |  |  |  |  |  |  | TGD-ER Range Score ([9]; 50 mpk BID + 10 Gy): C (<1=C) |
